Where two headings read alike, the source gives them in different places.
Experiments:
[1] = test system: HBV rtA181V; experiment: microbe, parasite or virus in culture; assay type: cell-based; details: Hepatitis B virus, HepG2
[2] = test system: HBV rtV173L+M204I; experiment: microbe, parasite or virus in culture; assay type: cell-based; details: Hepatitis B virus, HepG2
[3] = test system: HBV rtN236T; experiment: microbe, parasite or virus in culture; assay type: cell-based; details: Hepatitis B virus, HepG2
[4] = test system: HBV rtM204I; experiment: microbe, parasite or virus in culture; assay type: cell-based; details: Hepatitis B virus, HepG2
[5] = test system: HBV rtL180M+M204V; experiment: microbe, parasite or virus in culture; assay type: cell-based; details: Hepatitis B virus, HepG2
[6] = test system: HBV; experiment: HBV combination studies with ATI-2173 in primary human hepatocytes (MacSynergy); assay type: cell-based, Hepatitis B virus; details: compound combined with ATI-2173, primary human hepatocytes; for Combination index: MacSynergy
[7] = test system: HBV rtM204V; experiment: microbe, parasite or virus in culture; assay type: cell-based; details: Hepatitis B virus, HepG2
[8] = test system: HBV wild type (U95551); experiment: Cross-resistance in transfected HepG2 cells, wild type; assay type: cell-based, Hepatitis B virus
[9] = test system: clevudine-resistant mutants; details: mutants from viral break-through patients, predominantly M204I; cited from earlier work
[10] = in vitro; details: human
Description: HK-2 human kidney cells were obtained from ATCC (Manassas, VA) and cultured in Gibco Keratinocyte serum-free medium (Thermo Fisher Scientific, Waltham, MA) supplemented with 10% FBS (Peak Serum, Wellington, CO). Human skeletal muscle cells were obtained from Lonza (Walkersville, MD) and cultured in SkGM-2 skeletal muscle cell growth medium-2 (Lonza). Both HK-2 and skeletal muscle cells were cultured humidified at 37°C and 5% CO2. Cryopreserved human primary hepatocytes and medium were received from Lonza. Cryopreserved iCell cardiomyocytes and cardiomyocyte medium were purchased from Stem Cell Technologies (Vancouver, BC, Canada). Cryopreserved human bone marrow mononuclear cells were purchased from Lonza with HemaTox Myeloid medium purchased from [sequence] […] All cryopreserved cells (human primary hepatocytes, iCell cardiomyocytes, and human bone marrow mononuclear cells) were stored in vapor phase liquid nitrogen until the day of plating. […] Serial dilutions of compounds in DMSO were as follows: 100, 10, 1, 0.1, 0.01, 0.001, 0.0001, and 0.00001 μM (final concentration of DMSO in medium was 0.5%).
HK-2 and skeletal muscle cells were seeded into 96-well plates at 5,000 cells/well and incubated overnight at 37°C and 5% CO2. Human hepatocytes were thawed, diluted in hepatocyte plating medium (Lonza) and seeded into a 96-well, collagen-coated plates at 2.5 × 10^4 cells/well. Hepatocytes were incubated for 6 h at 37°C in 5% CO2, then the medium was aspirated and replaced with hepatocyte culture medium at 50 μl/well, and finally incubated overnight. The iCell cardiomyocytes were thawed, suspended in iCell thawing/plating medium, and plated at 4 × 10^4 cells/well in a gelatin-coated 96-well plate. iCells were incubated for 2 days at 37°C in 7% CO2. […]
Following incubation, cells were dosed and incubated for 72 h at 37°C and 5% CO2. Following incubation, the endpoint cell viability CellTiter-Glo 2.0 assay (Promega, San Luis Obispo, CA) was performed and luminescence data collected on a Synergy 4 plate reader (Biotek, Winooski, VT). […]

[11] = test system: HBV; set-up: method as in PMID 8834884, PMID 7786007, PMID 20516559; details: cell-based in vitro systems; read-out: Anti-HBV EC50; cited from earlier work
[12] = test system: HBV DNA; set-up: method as in PMID 15239097; details: patients, for 6 months following treatment; cited from earlier work
[13] = test system: HBV genotype D; experiment: Anti-HBV activity in HepG2.2.15 cells (extracellular HBV DNA by qPCR); assay type: cell-based; details: Hepatitis B virus
Description: ATI-2173 was obtained from WuXi SynTheAll. Entecavir (positive control) was obtained from Shanghai Titan Scientific Co., Ltd. HepG2.2.15 cells (derived from human hepatoblastoma cell-like HepG2) contain four 5′ to 3′ tandem copies of the HBV genotype D and were provided by WuXi. HepG2.2.15 cells were cultured in Dulbecco’s modified Eagle medium (DMEM)/F12 (Invitrogen, 11330032) supplemented with 2% fetal bovine serum (FBS) (HyClone, SV30087.03), 1% L-glutamine, 1% minimum essential medium (MEM) nonessential amino acid solution (NEAA), and 1% penicillin-streptomycin solution. QIAamp 96 DNA blood kit was purchased from Qiagen (51162). […] Culture medium containing ATI-2173 or entecavir (serially diluted) was added to cells on day 2 and refreshed on day 5. ATI-2173 dilutions were: 0.0006, 0.0024, 0.0098, 0.0391, 0.1563, 0.6250, 2.5000, and 10.0000 μM. On day 8, cell culture supernatants were collected and DNA was extracted by the QIAamp 96 DNA blood kit. qPCR was run at 95°C for 10 min, then cycled at 95°C for 15 s, 60°C for 1 min, for a total of 40 cycles. HBV DNA content in the samples was calculated according to the standard curve and CT (cycle threshold of qPCR) values of a sample. Data were normalized for maximum and minimum copy numbers.

[14] = Cell viability (CC50) in HepG2.2.15 cells; details: human
[15] = human, in vivo; cited from earlier work
[16] = in vivo, po; cited from earlier work
[17] = test system: HBV coreP25A; experiment: microbe, parasite or virus in culture; assay type: cell-based, Hepatitis B virus; details: HepG2 cells, mutation coreP25A; read-out: EC50
[18] = test system: HBV coreT33N; experiment: microbe, parasite or virus in culture; assay type: cell-based, Hepatitis B virus; details: HepG2 cells, mutation coreT33N; read-out: EC50
[19] = test system: HBV rtS202G+M204I+M250V; experiment: microbe, parasite or virus in culture; assay type: cell-based; details: Hepatitis B virus, HepG2
[20] = test system: HBV rtS202G+M204I; experiment: microbe, parasite or virus in culture; assay type: cell-based; details: Hepatitis B virus, HepG2
[21] = test system: HBV genotypes A, B, C, D, E, F, G, and H; experiment: microbe, parasite or virus in culture; assay type: cell-based; details: Hepatitis B virus, HepG2, read-out: IC50s, inhibition of HBV DNA across genotypes

Nc1ccn([C@@H]2CS[C@H](CO)O2)c(=O)n1 [Lamivudine, reference compound]
EC50 [1]: 210 nM
EC50 [2]: > 10000 nM
EC50 [3]: 130 nM
EC50 [4]: > 10000 nM
EC50 [5]: > 10000 nM
Combination effect [6]: Additive (A combination index of <25 is considered additive)
Combination index [6]: −5.86
EC50 [7]: 3510 nM
EC50 ([8]; Hepatitis B virus): 96 nM

C[C@H](Cn1cnc2c(N)ncnc21)OCP(=O)(O)O [Tenofovir]
Combination effect [6]: Additive (A combination index of <25 is considered additive)
Combination index [6]: 8.56
Activity against clevudine-resistant mutants [9]: active

Cc1cn([C@H]2O[C@@H](CO)[C@H](O)[C@H]2F)c(=O)[nH]c1=O [Clevudine, 1-(2-fluoro-5-methyl-β,L-arabinofuranosyl) uracil]
CC50 at 72 h [10]: > 100000 nM
EC50 [11]: ~100 nM
Sustained viral suppression, reduction from baseline [12]: ~2 log10
EC50 ([13]; HepG2.2.15, read-out: EC50, extracellular HBV DNA): 100 nM
CC50 ([14]; HepG2.2.15 cells): > 10000 nM
Myopathy on long-term exposure [15]: reversible proximal myopathy symptoms emerged
Plasma concentrations at effective doses [16]: up to 1 μM

CCOC(=O)C1=C(CN2CCOCC2)NC(c2nccs2)=NC1c1ccc(F)cc1Br (stereo not shown) [GLS4]
EC50 [17]: 295 nM
EC50 [18]: 3080 nM
Combination effect [6]: Additive (A combination index of <25 is considered additive)
Combination index [6]: 7.59
EC50 [8]: 15 nM

C=C1[C@H](CO)[C@@H](O)C[C@@H]1n1cnc2c(=O)[nH]c(N)nc21 [Entecavir]
EC50 ([13]; HepG2.2.15 cells, control compound, read-out: EC50, extracellular HBV DNA): 0.6 nM
EC50 [19]: 21000 nM
EC50 [20]: 9960 nM
CC50 [14]: > 50 nM
Combination effect [6]: Minor synergism (25 to 50 is considered minor synergism)
Combination index [6]: 38.62
Activity against clevudine-resistant mutants [9]: not
IC50 [21]: 0.5 to 2.2 nM
EC50 ([8]; Hepatitis B virus): 3 nM

COc1ccccc1/C(Br)=C(\NC(=O)c1ccc([N+](=O)[O-])cc1)C(=O)N1CCCCC1 [AT-130]
EC50 [18]: > 10000 nM
EC50 [8]: 246 nM

Nc1ncnc2c1ncn2CCOCP(=O)(O)O [Adefovir]
Combination effect [6]: Minor synergism (25 to 50 is considered minor synergism)
Combination index [6]: 32.85

Reference: paper PMC7449170, “ATI-2173, a Novel Liver-Targeted Non-Chain-Terminating Nucleotide for Hepatitis B Virus Cure Regimens” (Antimicrobial Agents and Chemotherapy, 2020)
